# Measurements reported in PMC9220178, “Preclinical Characterization of Antioxidant Quinolyl Nitrone QN23 as a New Candidate for the Treatment of Ischemic Stroke” (Antioxidants, 2022).
# Experiments:
# [1] = test system: male Wistar rats, transient middle cerebral artery occlusion (tMCAO); test: Infarct and edema volume (TTC staining) in transient focal cerebral ischemia (tMCAO); type: in vivo, rat; conditions: 48 h after tMCAO
# Procedure: For the transient focal cerebral ischemia experimental model we used 12-week-old male Wistar rats (300–350 g, Charles River), housed under standard conditions with food and water ad libitum. The animals were anesthetized by an intraperitoneal injection of a mixture of 100 mg/kg ketamine, 5 mg/kg diazepam, and 0.3 mg/kg atropine. Anesthesia was maintained during the surgical procedure by inhalation of 1–1.5% sevoflurane in 80% medicinal air plus 20% O2. For the transient occlusion of the right middle cerebral artery (tMCAO, 60 min), we followed the intraluminal suture procedure as originally described, adapted to our experimental setup. The procedure included continuous monitoring of cortical perfusion (CP, by Laser-Doppler flowmetry), arterial blood pressure, and core temperature, and discontinuous measurement of glycemia levels during preischemia (basal), ischemia, and reperfusion stages. Buprenorphine (subcutaneous, 0.05 mg/kg) was used as an analgesic. Forty-eight hours after the ischemic insult, the animals were euthanized by intracardiac injection of potassium chloride (200 mg/kg) under deep anesthesia, and the brains were obtained.
# A power analysis (see above) provided a sample size of 6 subjects per group. A total of 35 animals was used in this study. […]
# Brain infarct volume was determined by the 2,3,5-triphenyltetrazolium chloride (TTC; Sigma-Aldrich, Merck KGaA, Darmstadt, Germany) vital staining method, followed by morphometric analysis by a researcher blind to the treatment allocation. […] In order to correct for the influence of edema, the infarcted area was calculated as follows: corrected infarct area = infarct area × (contralateral hemisphere area / ipsilateral hemisphere area). The corrected infarct area was measured on both the anterior and the posterior sides of each slice and averaged; the corrected infarct volume was calculated by multiplying the average corrected infarct area by the thickness of the slice (2 mm), and the total corrected infarct volume by adding up the corrected infarct volume of the seven slices. […]
# [2] = test system: female Sprague Dawley rats; test: Toxicity study, 4-day repeated i.v. dose; type: in vivo, rat
# Procedure: For the toxicokinetics study of QN23, female Sprague Dawley rats (9–10 weeks, Envigo, Barcelona, Spain) were divided into three groups (n = 6 per group) and treated intravenously with different concentrations of QN23 (2.0, 6.0, and 18 mg/kg), in vehicle solution (ethanol/polyethylene glycol 400/saline, 1:200:60 v/v), as a single bolus of 1 mL injection at 3 mL/min. Samples of plasma were taken at 0.25, 0.5, 1, 2, 4, and 8 h after the first administration (on day 1) and QN23 concentration was determined by liquid chromatography–mass spectrometry in tandem (LC-MS/MS) analysis for pharmacokinetic study. For the determination of the toxicokinetic parameters, a noncompartmental analysis was performed using the Phoenix 64 WinNonlin software (version 8.0, Certara, Sant Louis, MO, USA). This study was carried out by Swiss BioQuant AG (Reinach, Switzerland). For the toxicity study of QN23, rats were divided into four groups (n = 5 per group) and treated intravenously with vehicle (control group) or different concentrations of QN23 (2.0, 6.0, and 18 mg/kg) as a single bolus injection in a 4-day repeated dose as described above. Pathology analyses, comprising hematology, clinical biochemistry, and coagulation, were performed, and heart, kidney, liver, and spleen necropsies were collected for macroscopic analysis. This study was carried out by Vivotecnia Research S.L (Madrid, Spain).
# [3] = Solubility studies for the injection vehicle; type: physicochemical; conditions: ethanol/saline, 1:9 v/v; highest concentrations (for doses up to 2.5 mg/kg)
# Procedure: In the following section, we describe the effect of different doses of QN23 (1.0, 1.5, 2.0, and 2.5 mg/kg) administered intravenously (see Materials and Methods, Section 2.2). In order to explore this wider range of concentrations, solubility studies were carried out before the in vivo experiments in order to assess a proper pharmacological formulation. For the highest concentrations, QN23 was not soluble in our usual ethanolic vehicle (ethanol/saline, 1:9 v/v). After exploration of different formulations able to provide a safe injection method, we got the desired concentrations using a vehicle of ethanol, polyethylene glycol 400, and saline (1:300:200, v/v). Using this vehicle, animals were treated intravenously with QN23 concentrations of 1.0, 1.5, 2.0, and 2.5 mg/kg as a single injection at the onset of the reperfusion period after transient cerebral ischemia. After five days of recovery (R5d), neuronal death, apoptosis, and neurodeficit score were determined (Figure 1 and Figure 2).
# [4] = four-day repeated i.v. dose, 2.0, 6.0 and 18 mg/kg
# [5] = four-day repeated i.v. dose, at some doses, no treatment-related effects concluded
smiles,measurement,setting,value
"COc1ccc2nc(Cl)c(/C=[N+](\[O-])C(C)(C)C)cc2c1 [QN23, (Z)-N-tert-Butyl-1-(2-chloro-6-methoxyquinolin-3-yl)methanimine Oxide]",Brain damage (total infarct volume) compared with vehicle,[1]; 1.5 mg/kg and 2.5 mg/kg i.v.,significantly reduced brain damage
same,Edema volume compared with vehicle,[1]; 1.5 mg/kg and 2.5 mg/kg i.v.,reduced
same,Brain damage (total infarct volume) compared with vehicle,[1]; 4 mg/kg i.v.,not at 4 mg/kg
same,Tolerability of repeated intravenous administration,"[2]; 2.0, 6.0 and 18 mg/kg i.v. for four days",well tolerated
same,Treatment-related systemic signs,"[2]; 2.0, 6.0 and 18 mg/kg i.v., four-day repeated dose, compared with control group",no treatment-related systemic signs were detected
same,Absolute or relative organ weights versus control group,[2]; [4],no significant differences
same,Food intake,[2]; [4],no effects were observed
same,"Macroscopic findings at necropsy (heart, kidneys, liver, spleen)",[2]; [4],no macroscopic findings
same,"Alkaline phosphatase (ALP) level, slight variation",[2]; [5],decreased
same,"Aspartate aminotransferase (AST) level, slight variation",[2]; [5],increased
same,Solubility in ethanolic vehicle,[3],not soluble
